Experiments:
Assay type in all cases: cell-based
human TLR8 = target: T1, human TLR8 (Homo sapiens, UniProt Q9NR97); experiment: TLR8 inhibition reporter assay (HEK-Blue SEAP); conditions: HEK-Blue cells overexpressing human TLR8, stimulated with R848 15.9 μM, 22 hour incubation
T1 construct: host or cells: HEK-Blue cells
T1 sequence (Q9NR97 27-1041): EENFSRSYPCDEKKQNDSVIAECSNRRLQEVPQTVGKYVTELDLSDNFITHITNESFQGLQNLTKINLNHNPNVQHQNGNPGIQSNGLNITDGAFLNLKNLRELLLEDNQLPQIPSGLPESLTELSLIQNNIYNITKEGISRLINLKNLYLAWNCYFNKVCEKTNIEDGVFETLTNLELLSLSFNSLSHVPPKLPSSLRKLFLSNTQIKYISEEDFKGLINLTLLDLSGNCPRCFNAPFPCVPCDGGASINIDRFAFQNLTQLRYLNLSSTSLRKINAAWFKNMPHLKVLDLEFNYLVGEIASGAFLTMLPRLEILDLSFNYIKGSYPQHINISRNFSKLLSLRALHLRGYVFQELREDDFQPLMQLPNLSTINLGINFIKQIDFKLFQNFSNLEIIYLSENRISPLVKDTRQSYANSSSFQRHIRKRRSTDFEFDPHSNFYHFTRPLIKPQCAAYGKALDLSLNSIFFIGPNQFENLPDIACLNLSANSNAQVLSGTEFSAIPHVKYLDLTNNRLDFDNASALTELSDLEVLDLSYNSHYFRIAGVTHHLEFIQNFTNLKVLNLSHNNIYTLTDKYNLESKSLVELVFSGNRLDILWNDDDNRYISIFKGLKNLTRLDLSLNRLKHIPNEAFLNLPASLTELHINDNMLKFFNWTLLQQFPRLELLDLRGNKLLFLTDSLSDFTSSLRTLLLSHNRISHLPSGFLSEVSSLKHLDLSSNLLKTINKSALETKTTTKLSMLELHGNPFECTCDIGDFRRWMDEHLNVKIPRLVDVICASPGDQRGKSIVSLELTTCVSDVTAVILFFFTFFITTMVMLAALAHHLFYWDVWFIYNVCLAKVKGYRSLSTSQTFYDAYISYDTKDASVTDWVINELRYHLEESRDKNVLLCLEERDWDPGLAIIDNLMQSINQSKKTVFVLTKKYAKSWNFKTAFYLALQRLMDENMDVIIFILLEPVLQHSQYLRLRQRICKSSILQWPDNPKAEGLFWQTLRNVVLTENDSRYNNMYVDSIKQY
Procedure, shortened: (§1)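 HEK-Blue cells overexpressing human TLR7, TLR8 or TLR9 with an NF-κB/AP-1-driven SEAP reporter were pre-treated 30 min at room temperature with compound (0.05 nM to 50 μM), then stimulated with gardiquimod 7.5 μM (TLR7), R848 15.9 μM (TLR8) or ODN2006 5 nM (TLR9). SEAP measured after 22 h at 37° C; inhibition normalized between agonist-plus-DMSO and reference-inhibitor wells.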

human TLR7 = target: T2, human TLR7 (Homo sapiens, UniProt Q9NYK1); experiment: TLR7 inhibition reporter assay (HEK-Blue SEAP); conditions: HEK-Blue cells overexpressing human TLR7, stimulated with gardiquimod 7.5 μM, 22 hour incubation
T2 construct: host or cells: HEK-Blue cells
T2 sequence (Q9NYK1 27-1049): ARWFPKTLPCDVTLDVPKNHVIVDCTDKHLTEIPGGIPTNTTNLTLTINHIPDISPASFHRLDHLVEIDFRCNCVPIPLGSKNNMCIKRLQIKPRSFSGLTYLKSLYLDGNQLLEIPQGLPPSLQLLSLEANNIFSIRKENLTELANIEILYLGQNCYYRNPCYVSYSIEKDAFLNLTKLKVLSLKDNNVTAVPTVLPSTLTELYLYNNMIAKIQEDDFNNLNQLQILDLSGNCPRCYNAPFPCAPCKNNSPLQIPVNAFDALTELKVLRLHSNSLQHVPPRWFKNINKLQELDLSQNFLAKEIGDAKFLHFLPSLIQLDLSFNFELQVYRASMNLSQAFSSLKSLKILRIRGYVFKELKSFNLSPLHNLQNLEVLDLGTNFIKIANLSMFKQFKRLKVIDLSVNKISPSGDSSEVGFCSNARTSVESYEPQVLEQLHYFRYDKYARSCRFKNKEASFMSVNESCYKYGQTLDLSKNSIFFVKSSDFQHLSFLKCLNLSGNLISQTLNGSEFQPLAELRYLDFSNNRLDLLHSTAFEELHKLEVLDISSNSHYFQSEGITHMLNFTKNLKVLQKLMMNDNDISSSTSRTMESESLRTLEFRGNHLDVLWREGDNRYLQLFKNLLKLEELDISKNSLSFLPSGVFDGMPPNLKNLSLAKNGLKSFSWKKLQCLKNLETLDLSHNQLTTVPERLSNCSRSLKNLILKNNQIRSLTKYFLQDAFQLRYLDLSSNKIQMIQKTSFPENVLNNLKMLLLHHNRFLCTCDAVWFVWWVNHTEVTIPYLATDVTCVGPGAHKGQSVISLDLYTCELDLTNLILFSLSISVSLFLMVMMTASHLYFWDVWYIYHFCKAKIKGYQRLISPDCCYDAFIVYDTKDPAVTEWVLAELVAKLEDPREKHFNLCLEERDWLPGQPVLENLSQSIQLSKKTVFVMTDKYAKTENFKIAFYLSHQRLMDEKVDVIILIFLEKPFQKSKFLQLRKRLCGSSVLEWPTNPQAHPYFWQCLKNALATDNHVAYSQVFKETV
Procedure, shortened: as §1

human TLR9 = target: T3, human TLR9 (Homo sapiens, UniProt Q9NR96); experiment: TLR9 inhibition reporter assay (HEK-Blue SEAP); conditions: HEK-Blue cells overexpressing human TLR9, stimulated with ODN2006 5 nM, 22 hour incubation
T3 construct: host or cells: HEK-Blue cells
T3 sequence (Q9NR96 26-1032): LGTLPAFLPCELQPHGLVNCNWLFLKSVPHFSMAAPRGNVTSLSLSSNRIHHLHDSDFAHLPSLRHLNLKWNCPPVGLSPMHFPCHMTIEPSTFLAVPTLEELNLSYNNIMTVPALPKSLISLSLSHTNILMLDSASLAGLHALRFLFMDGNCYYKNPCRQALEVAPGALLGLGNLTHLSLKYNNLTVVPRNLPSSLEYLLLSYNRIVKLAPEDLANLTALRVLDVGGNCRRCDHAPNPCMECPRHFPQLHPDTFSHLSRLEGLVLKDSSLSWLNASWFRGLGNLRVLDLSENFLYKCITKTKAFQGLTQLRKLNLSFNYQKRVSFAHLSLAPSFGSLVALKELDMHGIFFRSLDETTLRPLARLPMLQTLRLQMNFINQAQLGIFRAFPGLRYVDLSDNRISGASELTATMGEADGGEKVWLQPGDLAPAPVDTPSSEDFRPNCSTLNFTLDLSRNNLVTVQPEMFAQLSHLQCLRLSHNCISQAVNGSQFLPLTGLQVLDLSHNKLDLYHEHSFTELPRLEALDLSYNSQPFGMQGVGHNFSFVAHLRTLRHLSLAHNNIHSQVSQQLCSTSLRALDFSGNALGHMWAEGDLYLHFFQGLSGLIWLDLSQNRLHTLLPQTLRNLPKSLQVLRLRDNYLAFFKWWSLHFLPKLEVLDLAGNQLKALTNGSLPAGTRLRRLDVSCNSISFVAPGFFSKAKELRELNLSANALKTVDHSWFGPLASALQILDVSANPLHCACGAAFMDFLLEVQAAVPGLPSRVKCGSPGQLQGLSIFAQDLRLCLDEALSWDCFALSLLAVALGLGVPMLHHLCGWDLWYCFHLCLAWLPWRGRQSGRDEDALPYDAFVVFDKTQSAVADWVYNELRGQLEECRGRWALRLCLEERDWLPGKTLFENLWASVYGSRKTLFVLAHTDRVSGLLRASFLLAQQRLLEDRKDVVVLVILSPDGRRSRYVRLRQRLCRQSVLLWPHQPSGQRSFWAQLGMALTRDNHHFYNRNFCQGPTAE
Procedure, shortened: as §1

Compound	IC50 (human TLR8) [nM]	IC50 (human TLR7) [nM]	IC50 (human TLR9) [nM]
CCc1cc2c(C3CCN(CC(N)=O)CC3)n[nH]c2cc1-c1cc(C)c2ncnn2c1 [Example 92, 2-(4-(5-ethyl-6-(8-methyl-[1,2,4]triazolo[1,5-a]pyridin-6-yl)-1H-indazol-3-yl)piperidin-1-yl)acetamide]	0.2	2.7	17200
CCc1cc2c(C3CCC(NCC(=O)N(C)C)CC3)n[nH]c2cc1-c1cc(C)c2ncnn2c1 (stereo not drawn) [Example 95, 2-((4-(5-ethyl-6-(8-methyl-[1,2,4]triazolo[1,5-a]pyridin-6-yl)-1H-indazol-3-yl)cyclohexyl)amino)-N,N-dimethylacetamide]	0.2	5.4	10800
CCc1cc2c(C3CCC(NCC(=O)N(C)C)CC3)n[nH]c2cc1-c1cc(C)c2ncnn2c1 (stereo not drawn) [Example 96, 2-((4-(5-ethyl-6-(8-methyl-[1,2,4]triazolo[1,5-a]pyridin-6-yl)-1H-indazol-3-yl)cyclohexyl)amino)-N,N-dimethylacetamide]	0.2	3	16000
CCc1cc2c(C3CCN(CC(C)(C)O)CC3)n[nH]c2cc1-c1cc(C)c2ncnn2c1 [Example 101, 1-(4-(5-ethyl-6-(8-methyl-[1,2,4]triazolo[1,5-a]pyridin-6-yl)-1H-indazol-3-yl)piperidin-1-yl)-2-methylpropan-2-ol]	0.2	5.6	12200
Cc1cc(-c2cc3[nH]nc(C4CCNCC4)c3cc2C(C)C)cn2ncnc12 [Example 102, 6-(5-isopropyl-3-(piperidin-4-yl)-1H-indazol-6-yl)-8-methyl-[1,2,4]triazolo[1,5-a]pyridine]	0.4	1	10900
CCc1cc2c(C3CCN(C(=O)CCN(C)C)CC3)n[nH]c2cc1-c1cc(C)c2ncnn2c1 [Example 103, 3-(dimethylamino)-1-(4-(5-ethyl-6-(8-methyl-[1,2,4]triazolo[1,5-a]pyridin-6-yl)-1H-indazol-3-yl)piperidin-1-yl)propan-1-one]	0.9	11	12200
CCc1cc2c(C3CCN(CC#N)CC3)n[nH]c2cc1-c1cc(C)c2ncnn2c1 [Example 104, 2-(4-(5-ethyl-6-(8-methyl-[1,2,4]triazolo[1,5-a]pyridin-6-yl)-1H-indazol-3-yl)piperidin-1-yl)acetonitrile]	0.8	6.9	13600
CCc1cc2c(C3CCN(Cc4cn(C)nn4)CC3)n[nH]c2cc1-c1cc(C)c2ncnn2c1 [Example 105, 6-(5-ethyl-3-(1-((1-methyl-1H-1,2,3-triazol-4-yl)methyl)piperidin-4-yl)-1H-indazol-6-yl)-8-methyl-[1,2,4] triazolo[1,5-a]pyridine]	0.1	5.1	8780
CCc1cc2c(C3CCN(CCC#N)CC3)n[nH]c2cc1-c1cc(C)c2ncnn2c1 [Example 106, 3-(4-(5-ethyl-6-(8-methyl-[1,2,4]triazolo[1,5-a]pyridin-6-yl)-1H-indazol-3-yl)piperidin-1-yl)propanenitrile]	0.2	7.2	39800
CCc1cc2c(C3CCN(C(=O)CCCN(C)C)CC3)n[nH]c2cc1-c1cc(C)c2ncnn2c1 [Example 107, 4-(dimethylamino)-1-(4-(5-ethyl-6-(8-methyl-[1,2,4]triazolo[1,5-a]pyridin-6-yl)-1H-indazol-3-yl)piperidin-1-yl)butan-1-one]	1.7	10.3	16700
CCc1cc2c(C3CCN(CCC(F)(F)F)CC3)n[nH]c2cc1-c1cc(C)c2ncnn2c1 [Example 108, 6-(5-ethyl-3-(1-(3,3,3-trifluoropropyl)piperidin-4-yl)-1H-indazol-6-yl)-8-methyl-[1,2,4] triazolo[1,5-a]pyridine]	0.2	5.6	23500
CCc1cc(-c2cc(C)c3ncnn3c2)cc2[nH]nc(C3CCNCC3)c12 [Example 109, 6-(4-ethyl-3-(piperidin-4-yl)-1H-indazol-6-yl)-8-methyl-[1,2,4]triazolo[1,5-a]pyridine]	2.6	2	1630
CCc1cc(-c2cc(C)c3ncnn3c2)cc2[nH]nc(C3CCN(C(=O)CN(C)C)CC3)c12 [Example 110, 2-(dimethylamino)-1-(4-(4-ethyl-6-(8-methyl-[1,2,4]triazolo[1,5-a]pyridin-6-yl)-1H-indazol-3-yl)piperidin-1-yl)ethan-1-one]	1.8	2.4	3860
Cc1cc(-c2cc3[nH]nc(C4CCN(C(=O)CN(C)C)CC4)c3cc2C(C)C)cn2ncnc12 [Example 111, 2-(dimethylamino)-1-(4-(5-isopropyl-6-(8-methyl-[1,2,4]triazolo[1,5-a]pyridin-6-yl)-1H-indazol-3-yl)piperidin-1-yl)ethan-1-one]	0.5	1.8	18600

From patent US12172995B2, “Substituted indole and indazole compounds” (BRISTOL-MYERS SQUIBB COMPANY, priority 2018, dated 2024)
